In patent publication US11439641B2, “Pyrimidine JAK inhibitors for the treatment of skin diseases” (THERAVANCE BIOPHARMA R&D IP, LLC, priority 2019, dated 2022):
Values after ≈ are worked out from the molar mass of the structure shown.

Tests used:
[1] = Human Liver Microsome Assay; details: human liver microsomes 0.1 mg/mL, 0.1 μM compound, 1 mM NADPH, 37° C.
Procedure: Assay 4: Human Liver Microsome Assay
The objective of this assay was to assess the metabolic stability of test compounds in an in vitro human liver sub-fraction. Human liver microsomes obtained from Bioreclamation-IVT (Baltimore, Md.) were thawed on ice and diluted into 0.1 M potassium phosphate buffer pH 7.4 to yield final incubation protein concentrations of 0.1 mg/mL. Test compounds (10 mM) were diluted into NADPH cofactor to yield final incubation concentrations of 0.1 μM test compound and 1 mM NADPH. Incubations were conducted at 37° C. temperature and test aliquots were taken at time points 0, 5, 8, 15, 30 and 45 minutes. Each aliquot was crashed into water with 3% formic acid and 1 μM internal standard. The resulting samples were injected onto an LC-MS/MS system for analysis.
For each incubation, the peak area of the analytes in each t0 aliquot was set to 100% and the peak areas from subsequent time point aliquots were converted to percentage of parent compound remaining relative to t0. The percentage of parent compound remaining was converted to natural log scale and plotted versus time in minutes. A linear regression analysis was performed for the initial decline of the parent disappearance profile and a formula for the best-fit line determined. The slope of the resultant line was normalized to protein concentration in mg/mL protein or number of cells/mL and CLint was calculated as follows for liver microsomes: CLint(μL·min^−1·mg^−1)=(Slope×1000)/[protein,mg/mL]
CLint values from 9-49 μl/min/mg represent moderate clearance (i.e. 30-70% of hepatic blood flow in human) and values >50 μl/min/mg represent high hepatic clearance (i.e. >70% of hepatic blood flow in human).

Caco-2 cell monolayer = experiment: Caco-2 Permeation Assay; type: in vitro ADME; details: Papp, 5 μM compound; for Cacoverap Kp 10^−6 cm/sec: A→B in the presence of 25 μM verapamil (P-gp inhibitor); for Caco Kp 10^−6 cm/sec: apical to basal (A→B)
How it was run: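 Compound at 5 μM, in duplicate, crosses Caco-2 monolayers apical to basal over 120 min at 37 °C. This is run with and without 25 μM verapamil to test for P-gp efflux. Samples are quantified by LC-MS/MS, and Papp in cm/sec is calculated as dQ/(dt × area × concentration).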

JAK3 = JAK3 (Homo sapiens (Human), UniProt P52333); experiment: Biochemical JAK and Tyk2 Kinase Assays (LanthaScreen), JAK3; details: 1.6 μM ATP (Km), pIC50 converted to pKi by Cheng-Prusoff
Tyk2 = Tyk2 (Homo sapiens (Human), UniProt P29597); experiment: Biochemical JAK and Tyk2 Kinase Assays (LanthaScreen), Tyk2; details: 10 μM ATP (Km), pIC50 converted to pKi by Cheng-Prusoff
JAK2 = JAK2 (Homo sapiens (Human), UniProt O60674); experiment: Biochemical JAK and Tyk2 Kinase Assays (LanthaScreen), JAK2; details: 3 μM ATP (Km); pIC50 converted to pKi by Cheng-Prusoff
JAK1 = JAK1 (Homo sapiens (Human), UniProt P23458); experiment: Biochemical JAK and Tyk2 Kinase Assays (LanthaScreen), JAK1; details: 25 μM ATP (Km), pIC50 converted to pKi by Cheng-Prusoff
[2] = Solubility Assay in Organic Excipients; details: maximum upper limit 20,000 μM; for Solubility in MCT (mg/mL): medium chain triglycerides (MCT)
physchem = details: thermodynamic from solid

Sequence of JAK1 (P23458 whole entry): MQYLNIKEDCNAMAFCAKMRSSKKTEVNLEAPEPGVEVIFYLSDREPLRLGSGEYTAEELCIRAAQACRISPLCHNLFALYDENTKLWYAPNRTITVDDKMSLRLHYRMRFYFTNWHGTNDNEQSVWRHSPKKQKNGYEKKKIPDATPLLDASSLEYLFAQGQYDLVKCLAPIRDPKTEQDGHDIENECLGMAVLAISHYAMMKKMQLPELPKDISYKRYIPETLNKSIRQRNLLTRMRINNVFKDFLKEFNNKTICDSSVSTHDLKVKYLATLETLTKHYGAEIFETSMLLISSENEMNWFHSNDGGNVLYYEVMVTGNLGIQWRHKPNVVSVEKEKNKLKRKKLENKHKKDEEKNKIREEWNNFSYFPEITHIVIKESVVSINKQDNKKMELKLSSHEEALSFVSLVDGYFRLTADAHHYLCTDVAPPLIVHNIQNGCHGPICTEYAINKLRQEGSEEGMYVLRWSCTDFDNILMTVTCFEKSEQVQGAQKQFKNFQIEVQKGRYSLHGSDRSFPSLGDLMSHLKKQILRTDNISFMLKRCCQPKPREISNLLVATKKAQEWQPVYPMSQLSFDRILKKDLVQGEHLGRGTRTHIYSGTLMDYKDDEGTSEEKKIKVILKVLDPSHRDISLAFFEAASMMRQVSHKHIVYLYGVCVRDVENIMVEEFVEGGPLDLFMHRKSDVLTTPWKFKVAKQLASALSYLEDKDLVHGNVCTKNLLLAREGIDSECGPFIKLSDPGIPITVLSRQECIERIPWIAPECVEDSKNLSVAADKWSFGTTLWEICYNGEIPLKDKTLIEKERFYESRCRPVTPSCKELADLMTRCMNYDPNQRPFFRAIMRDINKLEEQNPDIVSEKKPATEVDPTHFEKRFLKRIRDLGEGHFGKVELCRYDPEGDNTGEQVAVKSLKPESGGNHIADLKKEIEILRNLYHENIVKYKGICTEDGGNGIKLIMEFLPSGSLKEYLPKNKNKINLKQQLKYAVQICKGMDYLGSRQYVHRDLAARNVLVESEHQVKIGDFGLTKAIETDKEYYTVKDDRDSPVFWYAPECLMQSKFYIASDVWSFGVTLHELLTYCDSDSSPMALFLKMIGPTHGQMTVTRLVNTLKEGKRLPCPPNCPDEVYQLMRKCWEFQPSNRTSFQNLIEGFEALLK
Sequence of JAK3 (P52333 whole entry): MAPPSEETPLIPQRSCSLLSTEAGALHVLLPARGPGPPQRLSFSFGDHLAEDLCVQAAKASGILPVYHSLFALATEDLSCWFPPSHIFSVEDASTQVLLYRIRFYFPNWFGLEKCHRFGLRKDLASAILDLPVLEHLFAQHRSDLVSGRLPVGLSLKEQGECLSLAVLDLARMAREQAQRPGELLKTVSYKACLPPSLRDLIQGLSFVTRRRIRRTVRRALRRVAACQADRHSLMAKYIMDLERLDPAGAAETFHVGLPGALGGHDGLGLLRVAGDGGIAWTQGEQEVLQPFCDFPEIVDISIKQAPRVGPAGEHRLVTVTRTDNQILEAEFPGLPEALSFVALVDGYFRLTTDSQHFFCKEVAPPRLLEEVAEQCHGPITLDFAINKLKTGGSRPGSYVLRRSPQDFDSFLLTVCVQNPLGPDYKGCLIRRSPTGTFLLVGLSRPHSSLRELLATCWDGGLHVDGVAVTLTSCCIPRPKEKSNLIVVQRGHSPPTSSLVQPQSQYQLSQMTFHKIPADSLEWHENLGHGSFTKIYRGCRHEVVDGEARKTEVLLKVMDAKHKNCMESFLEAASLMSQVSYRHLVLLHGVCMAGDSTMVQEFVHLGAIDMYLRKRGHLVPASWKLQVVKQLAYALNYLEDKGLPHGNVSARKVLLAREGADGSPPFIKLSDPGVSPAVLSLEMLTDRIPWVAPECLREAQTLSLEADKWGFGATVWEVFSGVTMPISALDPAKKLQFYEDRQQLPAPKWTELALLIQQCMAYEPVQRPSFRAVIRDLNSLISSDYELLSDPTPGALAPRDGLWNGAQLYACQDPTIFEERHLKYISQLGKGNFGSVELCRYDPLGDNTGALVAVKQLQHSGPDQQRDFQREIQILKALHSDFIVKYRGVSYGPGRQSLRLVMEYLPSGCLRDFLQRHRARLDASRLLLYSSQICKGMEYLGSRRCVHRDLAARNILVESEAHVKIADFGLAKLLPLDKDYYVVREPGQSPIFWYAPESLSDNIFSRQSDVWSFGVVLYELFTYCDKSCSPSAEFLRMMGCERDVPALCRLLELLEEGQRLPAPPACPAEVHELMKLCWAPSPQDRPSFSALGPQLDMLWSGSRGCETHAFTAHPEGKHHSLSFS
Sequence of JAK2 (O60674 whole entry): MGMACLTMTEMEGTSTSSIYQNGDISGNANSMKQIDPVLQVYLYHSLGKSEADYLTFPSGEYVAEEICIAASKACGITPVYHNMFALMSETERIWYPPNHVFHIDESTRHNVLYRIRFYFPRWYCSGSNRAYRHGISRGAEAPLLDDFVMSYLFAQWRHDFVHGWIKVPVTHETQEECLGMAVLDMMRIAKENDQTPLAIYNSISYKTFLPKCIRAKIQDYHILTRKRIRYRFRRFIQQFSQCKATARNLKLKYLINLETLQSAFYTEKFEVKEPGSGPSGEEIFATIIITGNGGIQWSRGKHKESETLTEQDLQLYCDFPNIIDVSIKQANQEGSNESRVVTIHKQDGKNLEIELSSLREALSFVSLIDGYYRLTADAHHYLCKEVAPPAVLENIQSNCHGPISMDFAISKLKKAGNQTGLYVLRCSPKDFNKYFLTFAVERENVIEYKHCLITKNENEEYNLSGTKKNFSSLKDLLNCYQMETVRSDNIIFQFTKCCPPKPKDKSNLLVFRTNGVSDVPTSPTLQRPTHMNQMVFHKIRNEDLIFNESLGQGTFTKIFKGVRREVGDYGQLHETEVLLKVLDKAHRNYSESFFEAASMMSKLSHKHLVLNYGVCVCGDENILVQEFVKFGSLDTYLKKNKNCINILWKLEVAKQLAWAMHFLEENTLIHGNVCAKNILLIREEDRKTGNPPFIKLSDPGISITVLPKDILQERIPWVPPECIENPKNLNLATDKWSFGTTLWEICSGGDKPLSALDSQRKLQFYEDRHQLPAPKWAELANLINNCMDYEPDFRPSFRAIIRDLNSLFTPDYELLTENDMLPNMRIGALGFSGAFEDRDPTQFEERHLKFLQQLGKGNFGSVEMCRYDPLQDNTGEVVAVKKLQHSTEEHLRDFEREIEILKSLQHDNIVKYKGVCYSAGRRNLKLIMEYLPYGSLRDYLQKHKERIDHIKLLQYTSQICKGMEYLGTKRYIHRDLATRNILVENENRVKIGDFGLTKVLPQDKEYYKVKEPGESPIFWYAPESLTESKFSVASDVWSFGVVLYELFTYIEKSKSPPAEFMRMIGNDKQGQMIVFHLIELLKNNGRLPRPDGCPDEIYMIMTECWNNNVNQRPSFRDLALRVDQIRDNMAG
Sequence of Tyk2 (P29597 whole entry): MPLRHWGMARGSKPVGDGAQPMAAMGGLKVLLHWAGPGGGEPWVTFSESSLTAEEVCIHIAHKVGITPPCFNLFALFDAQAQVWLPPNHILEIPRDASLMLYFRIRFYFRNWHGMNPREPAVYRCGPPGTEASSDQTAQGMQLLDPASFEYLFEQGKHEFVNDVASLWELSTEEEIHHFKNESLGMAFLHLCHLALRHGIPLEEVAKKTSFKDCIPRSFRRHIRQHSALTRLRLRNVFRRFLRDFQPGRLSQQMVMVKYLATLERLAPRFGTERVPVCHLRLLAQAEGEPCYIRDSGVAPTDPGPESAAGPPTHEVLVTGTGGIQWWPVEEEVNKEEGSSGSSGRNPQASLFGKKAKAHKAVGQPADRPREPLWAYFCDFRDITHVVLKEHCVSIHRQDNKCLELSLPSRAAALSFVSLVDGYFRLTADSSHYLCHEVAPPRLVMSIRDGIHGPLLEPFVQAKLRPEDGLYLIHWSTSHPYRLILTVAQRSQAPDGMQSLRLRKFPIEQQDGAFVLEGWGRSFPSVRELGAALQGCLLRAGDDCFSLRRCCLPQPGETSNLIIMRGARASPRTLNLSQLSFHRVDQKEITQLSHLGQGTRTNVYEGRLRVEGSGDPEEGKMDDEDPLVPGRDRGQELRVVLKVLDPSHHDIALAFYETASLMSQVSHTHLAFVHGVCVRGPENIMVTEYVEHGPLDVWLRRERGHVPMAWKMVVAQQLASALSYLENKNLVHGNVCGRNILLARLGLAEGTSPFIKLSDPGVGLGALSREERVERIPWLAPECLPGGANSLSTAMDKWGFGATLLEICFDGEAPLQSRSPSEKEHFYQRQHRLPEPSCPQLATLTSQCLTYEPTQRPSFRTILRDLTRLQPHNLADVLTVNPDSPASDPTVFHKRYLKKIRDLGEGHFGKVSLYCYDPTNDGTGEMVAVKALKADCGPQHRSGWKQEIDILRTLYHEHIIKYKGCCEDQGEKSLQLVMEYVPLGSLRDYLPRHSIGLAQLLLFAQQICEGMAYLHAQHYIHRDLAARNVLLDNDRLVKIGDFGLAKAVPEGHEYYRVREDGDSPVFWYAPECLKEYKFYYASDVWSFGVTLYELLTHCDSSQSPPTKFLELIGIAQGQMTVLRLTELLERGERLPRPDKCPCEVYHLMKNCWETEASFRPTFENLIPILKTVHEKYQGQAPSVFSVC

Row | Compound | HLM Clin μL/min/mg [1] | Cacoverap Kp 10^−6 cm/sec (Caco-2 cell monolayer) | Caco Kp 10^−6 cm/sec (Caco-2 cell monolayer) | JAK 3 (pKi) (JAK3) | Tyk 2 (pKi) (Tyk2) | JAK 2 (pKi) (JAK2) | JAK 1 (pKi) (JAK1) | Solubility in PEG400 (mg/mL) [2] | Solubility in Diisopropyl adipate (mg/mL) [2] | Solubility in MCT (mg/mL) [2] | Solubility in Propylene glycol (mg/mL) [2] | Ki (JAK3; read-out: JAK 3 (pKi) (converted)) [nM] | Ki (Tyk2; read-out: Tyk 2 (pKi) (converted)) [nM] | solubility at 4 h (physchem; oil or lipid, Solubility in MCT (mg/mL)) [µg/mL] | solubility at 4 h (physchem; organic solvent or mixture, Solubility in Diisopropyl adipate (mg/mL)) [µg/mL] | solubility at 4 h (physchem; organic solvent or mixture, Solubility in PEG400 (mg/mL)) [µg/mL] | solubility at 4 h (physchem; organic solvent or mixture, Solubility in Propylene glycol (mg/mL)) [µg/mL] | Ki (JAK1; read-out: JAK 1 (pKi) (converted)) [nM]
1 | CCS(=O)(=O)N1[C@@H]2CCC[C@H]1C[C@H](N(C)c1nc(COC3COC3)c(F)c(Nc3cc(C)[nH]n3)n1)C2 [Compound 41, N2-((1R,3s,5S)-9-(ethylsulfonyl)-9-azabicyclo[3.3.1]nonan-3-yl)-5-fluoro-N2-methyl-N4-(5-methyl-1H-pyrazol-3-yl)-6-((oxetan-3-yloxy)methyl)pyrimidine-2,4-diamine] | C (C represents a Clint value between 130 and 500) | A (A represents a value above 35×10^−6 cm/sec) | A (A represents a value above 30×10^−6 cm/sec) | B (B represents a pKi value between 9 and 10 (Ki between 1 nM and 0.1 nM)) | A (A represents a pKi value ≥10 (Ki≤0.1 nM)) | A (A represents a pKi value ≥10 (Ki≤0.1 nM)) | A (A represents a pKi value ≥10 (Ki≤0.1 nM)) | B (B represents a value between 5 and 10) | A (A represents a value above 10) | C (C represents a value below 5) | A (A represents a value above 10) |  |  |  |  |  |  | 
2 | CCS(=O)(=O)N1[C@@H]2CCC[C@H]1C[C@H](N(C)c1nc(CO[C@H]3CCOC3)c(F)c(Nc3cc(C)[nH]n3)n1)C2 [Compound 42, N2-((1R,3s,5S)-9-(ethylsulfonyl)-9-azabicyclo[3.3.1]nonan-3-yl)-5-fluoro-N2-methyl-N4-(5-methyl-1H-pyrazol-3-yl)-6-((((S)-tetrahydrofuran-3-yl)oxy)methyl)pyrimidine-2,4-diamine] | B (B represents a Clint value between 500 and 1250) |  | A (A represents a value above 30×10^−6 cm/sec) | B (B represents a pKi value between 9 and 10 (Ki between 1 nM and 0.1 nM)) | A (A represents a pKi value ≥10 (Ki≤0.1 nM)) | A (A represents a pKi value ≥10 (Ki≤0.1 nM)) | B (B represents a pKi value between 9 and 10 (Ki between 1 nM and 0.1 nM)) | A (A represents a value above 10) | A (A represents a value above 10) | C (C represents a value below 5) | A (A represents a value above 10) |  |  |  |  |  |  | 
3 | CCS(=O)(=O)N1[C@@H]2CCC[C@H]1C[C@H](N(C)c1nc(Nc3cc(C)[nH]n3)cc(C3CCCO3)n1)C2 (stereo partly drawn) [Compound 8, N^2-((1R,3s,5S)-9-(ethylsulfonyl)-9-azabicyclo[3.3.1]nonan-3-yl)-N2-methyl-N4-(5-methyl-1H-pyrazol-3-yl)-6-(tetrahydrofuran-2-yl)pyrimidine-2,4-diamine] | A (A represents a Clint value between 1250 and 3000) | A (A represents a value above 35×10^−6 cm/sec) | A (A represents a value above 30×10^−6 cm/sec) | B (B represents a pKi value between 9 and 10 (Ki between 1 nM and 0.1 nM)) | A (A represents a pKi value ≥10 (Ki≤0.1 nM)) | A (A represents a pKi value ≥10 (Ki≤0.1 nM)) | A (A represents a pKi value ≥10 (Ki≤0.1 nM)) | A (A represents a value above 10) | B (B represents a value between 5 and 10) | C (C represents a value below 5) | A (A represents a value above 10) |  |  |  |  |  |  | 
4 | CCS(=O)(=O)N1[C@@H]2CCC[C@H]1C[C@H](N(C)c1nc(CO[C@@H]3CCOC3)c(F)c(Nc3cc(C)[nH]n3)n1)C2 [Compound 43, N2-((1R,3s,5S)-9-(ethylsulfonyl)-9-azabicyclo[3.3.1]nonan-3-yl)-5-fluoro-N2-methyl-N4-(5-methyl-1H-pyrazol-3-yl)-6-((((R)-tetrahydrofuran-3-yl)oxy)methyl)pyrimidine-2,4-diamine] | C (C represents a Clint value between 130 and 500) |  | A (A represents a value above 30×10^−6 cm/sec) | B (B represents a pKi value between 9 and 10 (Ki between 1 nM and 0.1 nM)) | A (A represents a pKi value ≥10 (Ki≤0.1 nM)) | A (A represents a pKi value ≥10 (Ki≤0.1 nM)) | B (B represents a pKi value between 9 and 10 (Ki between 1 nM and 0.1 nM)) | A (A represents a value above 10) | A (A represents a value above 10) | C (C represents a value below 5) | A (A represents a value above 10) |  |  |  |  |  |  | 
5 | COC(=O)N1[C@@H]2CCC[C@H]1C[C@H](N(C)c1nc(Nc3cc(C)[nH]n3)cc(O[C@@H]3CCOC3)n1)C2 [Compound 23] |  | B (B represents a value between 20×10^−6 and 35×10^−6 cm/sec) | A (A represents a value above 30×10^−6 cm/sec) |  |  | A (A represents a pKi value ≥10 (Ki≤0.1 nM)) |  |  |  |  |  | 0.1 to 1 | 0.1 to 1 | 5000 to 10000 (≈ 10.6 to 21.2 mM) | > 10000 | 5000 to 10000 (≈ 10.6 to 21.2 mM) | > 10000 | 0.1 to 1
